Test results: patent publication US20040006002A1, “Methods and compositions for treating flaviviruses and pestiviruses using 4'-modified nucleoside” (priority 2001, published 2004)

Key:
[1] = Cytotoxicity assay (sulforhodamine B, 4 days); format: cell-based; details: bovine; MDBK cells, 4 days incubation, concentration reducing cell number by 50%; preliminary results
Description: (§1) The test compounds were dissolved in DMSO at an initial concentration of 200 μM and then were serially diluted in culture medium.
(§2) Cells are seeded at a rate of between 5×10^3 and 5×10^4/well into 96-well plates in growth medium overnight at 37° C. in a humidified CO2 (5%) atmosphere. New growth medium containing serial dilutions of the drugs is then added. After incubation for 4 days, cultures are fixed in 50% TCA and stained with sulforhodamineB. The optical density was read at 550 nm. The cytotoxic concentration was expressed as the concentration required to reduce the cell number by 50% (CC50).

BVDV (strain NADL) = assay: Cell Protection Assay (CPA), BVDV-infected MDBK cells; format: cell-based, Bovine Viral Diarrhea virus; details: MOI 0.02, MDBK cells, four days post-infection, 50% reduction of cytopathic effect
Description: as §1
(§3) The assay is performed essentially as described by Baginski, S. G.; Pevear, D. C.; Seipel, M.; Sun, S. C. C.; Benetatos, C. A.; Chunduru, S. K.; Rice, C. M. and M. S. Collett “Mechanism of action of a pestivirus antiviral compound” PNAS USA 2000, 97(14), 7981-7986. MDBK cells (ATCC) are seeded onto 96-well culture plates (4,000 cells per well) 24 hours before use. After infection with BVDV (strain NADL, ATCC) at a multiplicity of infection (MOI) of 0.02 plaque forming units (PFU) per cell, serial dilutions of test compounds are added to both infected and uninfected cells in a final concentration of 0.5% DMSO in growth medium. Each dilution is tested in quadruplicate. Cell densities and virus inocula are adjusted to ensure continuous cell growth throughout the experiment and to achieve more than 90% virus-induced cell destruction in the untreated controls after four days post-infection. After four days, plates are fixed with 50% TCA and stained with sulforhodamine B. The optical density of the wells is read in a microplate reader at 550 nm. The 50% effective concentration (EC50) values are defined as the compound concentration that achieved 50% reduction of cytopathic effect of the virus.

[2] = Cell Protection Assay (CPA), uninfected cells (cytotoxicity); format: cell-based; details: bovine, uninfected MDBK cells, Table 2, Cell Protection Assay
Description: as §2, §3

MDBK = assay: Cytotoxicity assay (sulforhodamine B, 4 days); format: cell-based; details: MDBK cells, 4 days incubation, concentration reducing cell number by 50%; preliminary results
Description: as §1, §2

MDBK cells = assay: Cell Protection Assay (CPA), uninfected cells (cytotoxicity); format: cell-based; details: Table 2, Cell Protection Assay
Description: as §2, §3

[3] = Bovine viral diarrhea virus isolates and strains, 96 h

SMILES | CC50 at 4 days [1] [µM] | EC50 (BVDV (strain NADL); [3]) [µM] | CC50 at 4 days [2] [µM] | melting point | CC50 (MDBK) [µM] | EC50 (BVDV (strain NADL)) [µM] | CC50 (MDBK cells) [µM]
C[C@]1(CO)O[C@@H](n2ccc(=S)[nH]c2=O)[C@H](O)[C@@H]1O [β-D-4'-CH3-ribo-4-thioU, 1-(4-C-methyl-β-D-ribofuranosyl)4-thio-uracil] | > 250 | > 250 | > 250 | 65 to 70 °C (dec.) | – | – | –
C[C@]1(CO)O[C@@H](n2cc(F)c(=O)[nH]c2=O)[C@H](O)[C@@H]1O [β-D-4'-CH3-ribo-5-fluoroU] | – | – | – | – | > 167 | > 167 | > 167
C[C@]1(CO)O[C@@H](n2cnc3c(N)ncnc32)[C@H](O)[C@@H]1O [β-D-4'-CH3-riboA, 9-(4-C-methyl-β-D-ribofuranosyl) adenine] | > 250 | > 250 | > 250 | 96 to 97 °C (dec.) | – | – | –
C[C@]1(CO)O[C@@H](n2ccc(N)nc2=O)[C@H](O)[C@@H]1O [β-D-4'-CH3-riboC, 1-(4-C-methyl-β-D-ribofuranosyl)cytosine] | > 250 | 9 | > 250 | – | – | – | –
C[C@]1(CO)O[C@@H](n2cnc3c(=O)[nH]c(N)nc32)[C@H](O)[C@@H]1O [β-D-4'-CH3-riboG, 9-(4-C-methyl-β-D-ribofuranosyl) guanine] | > 250 | 43 | > 250 | – | – | – | –
Cc1cn([C@@H]2O[C@](C)(CO)[C@@H](O)[C@H]2O)c(=O)[nH]c1=O [β-D-4'-CH3-riboT, 1-(4-C-methyl-β-D-ribofuranosyl)thymine] | > 250 | > 250 | > 250 | 258 to 260 °C (dec.) | – | – | –
